Measurements as given in patent US8962265B2, “Mutant parasites for use as vaccines and platforms for screening for compounds” (Indiana University Research and Technology Corp., priority 2010, dated 2015).

Test system: TgIF2α
Assay: Western blot of TgIF2α phosphorylation
Assay type: cell-based, Toxoplasma gondii
Conditions: wild-type parasites treated with the ionophore
Description: In order to confirm that the TgIF2α-S71A clone could not be phosphorylated under normal physiological condition, a Western blot of lysates from parasites treated with the ionophore A23187 was carried out using antisera that specifically recognizes TgIF2α which is phosphorylated at ser-71 or total TgIF2α protein (Narasimhan et al., 2008b; Sullivan Jr. et al., 2004b). Referring now to FIG. 1C, equal amounts of protein lysates from WT or TgIF2α-S71A tachyzoites were resolved on a 4-12% polyacrylamide gel and transferred to a membrane for immunoblotting with antibody that specifically recognizes TgIF2α phosphorylated at ser-71 (TgIF2α-P) or total TgIF2α protein. […]
Next addressed was whether TgIF2K-D is required for induced TgIF2α phosphorylation when the parasite is outside of the host cell. Referring now to FIG. 9A, TgIF2α phosphorylation was analyzed by separating cell lysates via denaturing SDS-PAGE, followed by western blotting using antibodies to total TgIF2α or phosphorylated TgIF2α (TgIF2α˜P). […]
Phosphorylation of TgIF2α was monitored by Western blotting performed in accordance with standard methods. […]
Western blot analyses of TgIF2α phosphorylation were carried out as previously described. […] HA-tagged proteins were detected by western blot analyses after resolving parasite lysate on a 3-8% Tris-acetate polyacrylamide gradient gel. […]

## CNc1ccc2oc(C[C@H]3O[C@@]4(CC[C@H]3C)O[C@H]([C@H](C)C(=O)c3ccc[nH]3)[C@H](C)C[C@H]4C)nc2c1C(=O)O [A23187]
  induction of TgIF2α phosphorylation: potent inducer
